In one assay the target is T1, NK-1 (Homo sapiens, UniProt P25103).
T1 construct: endogenous in cells; host or cells: U373 cells (crude membranes)
As to the kind of experiment: NK1 radioligand binding assay. To be noted: U373 membrane preparation, [125I]Substance P. The protocol: (§1) NK-1 Binding assay. Crude membrane suspensions were prepared for the NK1 and SERT radioligand binding assays from U373 cells or recombinant HEK-293 cells expressing hSERT, respectively. […] The medium is removed from the flasks and the cells rinsed with HBSS without Ca and without Mg. The cells are then incubated for 5-10 minutes in 10 mM Tris-Cl, pH 7.5, 5 mM EDTA before the cells are lifted with a combination of pipetting and scraping, as needed. To prepare membranes, the cell suspension is collected into centrifuge bottles and homogenized for 30 seconds with a Polytron homogenizer. The suspension is centrifuged for 30 min 32,000×g, 4° C., then the supernatant is decanted and the pellet resuspended and homogenized in 50 mM Tris-Cl, pH 7.5, 1 mM EDTA for 10 seconds. The suspension is then centrifuged again for 30 min 32,000×g, 4° C. The supernatant is decanted and the pellet resuspended in 50 mM Tris-Cl, pH 7.5, 1 mM EDTA and briefly homogenized. A Bradford assay (Bio-rad) is performed and the membrane preparation diluted to 2 mg/ml with 50 mM Tris-Cl, pH 7.5, 1 mM EDTA. Aliquots are prepared, and then frozen and stored at −80° C.
(§2) NK1 radioligand binding assay. Compounds are dissolved in 100% DMSO at a concentration 100× the desired highest assay concentration, serially diluted 1:3 in 100% DMSO, and 0.6 ul/well of each solution is dispensed to a Nunc polypropylene, round bottom, 384 well plate. […] The contents of the assay plate are then transferred to a Millipore MultiscreenHTS GF/B filter plate which has been pretreated with 0.5% PEI for at least one hour. The plate is vacuum filtered and washed with 7 washes of 100 ul/well of 20 mM Tris-Cl, pH 7.5, 0.5% (w/v) BSA chilled to 4° C. The filtration and washing is completed in less than 90 s. The plates are air-dried overnight, 12 ul/well of MicroScint scintillation fluid added, and the plates counted in a Trilux.
(§3) Data analysis. […] Each plate is run in triplicate, and the concentration response curve thus generated is fit using the four-parameter dose response equation, Y=Bottom+(Top-Bottom)/(1+10^((Log IC50−X)*HillSlope)) in order to determine the IC50 value for each compound. The radioligand concentration chosen for each assay corresponds to the Kd concentration determined through saturation binding analysis for each assay.

A further assay deals with T2, hSERT (Homo sapiens, UniProt P31645).
T2 construct: expressed in transfected cells; host or cells: HEK-293 cells (crude membranes)
T2 sequence (P31645 whole entry): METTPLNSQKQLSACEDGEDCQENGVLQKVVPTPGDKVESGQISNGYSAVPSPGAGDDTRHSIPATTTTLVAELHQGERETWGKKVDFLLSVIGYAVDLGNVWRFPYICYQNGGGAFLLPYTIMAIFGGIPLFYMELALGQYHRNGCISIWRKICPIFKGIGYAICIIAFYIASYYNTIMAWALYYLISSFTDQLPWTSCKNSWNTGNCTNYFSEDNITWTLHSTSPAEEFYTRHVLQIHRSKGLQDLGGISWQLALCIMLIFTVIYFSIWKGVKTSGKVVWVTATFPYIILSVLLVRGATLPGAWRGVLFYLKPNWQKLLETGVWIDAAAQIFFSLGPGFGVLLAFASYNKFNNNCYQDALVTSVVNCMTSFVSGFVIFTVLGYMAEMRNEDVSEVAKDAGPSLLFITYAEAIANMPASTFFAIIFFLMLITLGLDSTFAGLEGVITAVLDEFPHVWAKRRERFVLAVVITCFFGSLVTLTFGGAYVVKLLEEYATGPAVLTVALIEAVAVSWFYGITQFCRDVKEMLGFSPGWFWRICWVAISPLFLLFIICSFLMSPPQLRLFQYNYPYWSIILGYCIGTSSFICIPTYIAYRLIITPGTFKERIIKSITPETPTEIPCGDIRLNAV
The assay is described as follows: SERT radioligand binding assay. The protocol: as §1
as §2, with “SERT” for “NK1”, “0.4” for “0.6”, “50” for “20”, “120 mM NaCl, 5 mM KCl” for “0.5% (w/v) BSA”
as §3

Where [1] appears, read: HEK-hSERT membrane preparation, [125I]RTI-55, read-out: SERT IC50.

Our source for the IC50 values is patent publication US8071778B2, “Substituted heterocyclic ethers and their use in CNS disorders” (Bristol-Myers Squibb Company, priority 2006, dated 2011).

Like-named read-outs stand apart in the source and are kept apart here. Where only a bound is given, the exact number is not on record here.

T1 sequence (P25103 whole entry): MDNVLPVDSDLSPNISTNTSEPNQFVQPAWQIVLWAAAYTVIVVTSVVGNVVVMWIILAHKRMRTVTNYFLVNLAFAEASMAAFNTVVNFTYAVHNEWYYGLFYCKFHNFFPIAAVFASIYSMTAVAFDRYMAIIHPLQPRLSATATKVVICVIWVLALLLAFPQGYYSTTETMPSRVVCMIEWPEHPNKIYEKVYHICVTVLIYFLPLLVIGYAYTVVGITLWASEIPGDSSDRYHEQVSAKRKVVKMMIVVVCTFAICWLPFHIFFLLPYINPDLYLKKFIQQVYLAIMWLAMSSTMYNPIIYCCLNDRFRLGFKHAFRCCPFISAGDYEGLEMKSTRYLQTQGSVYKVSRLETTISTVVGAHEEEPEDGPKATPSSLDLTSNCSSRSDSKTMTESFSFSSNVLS

In the case of `Fc1ccc(C2(COCc3cc(C(F)(F)F)cc(N4CC=CC4)n3)CCNCC2)cc1` [Example 19], the IC50 at NK-1 and at hSERT (setting [1]) was 0.01 to 100 nM in each case.

Take `COc1ccc(-c2cc(C(F)(F)F)cc(COCC3(c4ccc(F)cc4)CCN(C)CC3)n2)cc1F` [Example 75]: the concentration for half-maximal inhibition (IC50) at NK-1 and on hSERT was 0.01 to 100 nM each time.

Consider `CN1CCC(COCc2cc(C(F)(F)F)cc(-c3ccc(C#N)cc3)n2)(c2ccc(F)cc2F)CC1` [Example 64], for which the half-maximal inhibitory concentration (IC50) (commonly the concentration needed to halve the response being measured) is 0.01 to 100 nM at NK-1 and 100 to 300 nM on hSERT.

In the case of `Clc1ccc(-c2ccc(COCC3(c4ccccc4)CCNCC3)cn2)cc1` [Example 10], the IC50 is more than 300 nM at NK-1 and 0.01 to 100 nM on hSERT (setting [1]).

For the molecule `CC(OCC1(c2ccccc2)CCNCC1)c1cc(C(F)(F)F)cc(C#N)n1` (centres unmarked) [Example 32], the IC50 at NK-1 and at hSERT (setting [1]) was 0.01 to 100 nM each time.

Take `CN1CCC(COCc2cc(C(F)(F)F)cc(-c3ccc(C#N)cc3)n2)(c2ccccc2F)CC1` [Example 54]: the IC50 is 0.01 to 100 nM at NK-1 and 100 to 300 nM at hSERT.

Take `Fc1ccc(C2(COCc3cc(C(F)(F)F)cc(-c4ccc(F)cc4F)n3)CCNCC2)cc1` [Example 12]: the half-maximal inhibitory concentration (IC50) at NK-1 and on hSERT (setting [1]) was 0.01 to 100 nM throughout.

Regarding `CN1CCC(COCc2cc(C(F)(F)F)cc(-c3ccc(C#N)cc3)n2)(c2ccccc2)CC1` [Example 41], the IC50 on NK-1 and at hSERT was 0.01 to 100 nM each time.

As for `Cc1cc(-c2cc(C(F)(F)F)cc(COCC3(c4ccc(F)cc4)CCN(C)CC3)n2)ccc1C#N` [Example 61], the IC50 on NK-1 and on hSERT was 0.01 to 100 nM each time.

For `CN1CCC(COCc2cc(C(F)(F)F)cc(-c3ccncc3)n2)(c2ccccc2)CC1` [Example 39], the 50% inhibitory concentration (IC50) at NK-1 and at hSERT was 0.01 to 100 nM throughout.

Turning to `CN1CCC(COCc2ccc(-c3ccc(Cl)cc3)nc2)(c2ccccc2)CC1` [Example 50], the figures for the IC50 at NK-1 and on hSERT were more than 300 nM and 0.01 to 100 nM, respectively.

In the case of `Cc1cc(-c2cc(C(F)(F)F)cc(COCC3(c4ccc(F)cc4)CCNCC3)n2)ccc1C#N` [Example 11], the IC50 on NK-1 and at hSERT (setting [1]) was 0.01 to 100 nM each time.

In the case of `CC(OCC1(c2ccccc2)CCN(C)CC1)c1cc(C(F)(F)F)cc(-c2ccc(F)cc2)n1` (centres unmarked) [Example 34, 2-(4-fluorophenyl)-6-(1-((1-methyl-4-phenylpiperidin-4-yl)methoxy)ethyl)-4-(trifluoromethyl)pyridine], the half-inhibitory concentration (IC50) on NK-1 and on hSERT (setting [1]) was 0.01 to 100 nM throughout.

As to `CN1CCC(COCc2cc(C(F)(F)F)cc(N3CC[C@@H](F)C3)n2)(c2ccc(F)cc2)CC1` [Example 92], the IC50 at NK-1 and at hSERT was 0.01 to 100 nM in each case.

With `N#CC1CCN(c2cc(C(F)(F)F)cc(COCC3(c4ccc(F)cc4)CCNCC3)n2)CC1` [Example 17], the IC50 on NK-1 and at hSERT (setting [1]) was 0.01 to 100 nM throughout.

Regarding `CN1CCC(COCc2cc(C(F)(F)F)cc(-c3ccc(C#N)cc3)n2)(c2cccnc2)CC1` [Example 98], the 50% inhibitory concentration (IC50) at NK-1 and on hSERT was 0.01 to 100 nM each time.

In the case of `CN1CCC(COCc2cc(-c3ccc(C#N)cc3)nc(-c3ccc(C#N)cc3)c2)(c2ccccc2)CC1` [Example 67], the half-maximal inhibitory concentration (IC50) on NK-1 was more than 300 nM; at hSERT, 100 to 300 nM.

`Fc1ccc(-c2cc(C(F)(F)F)cc(COCC3(c4ccccc4)CCNCC3)n2)cc1` [Example 5]: the IC50 at NK-1 and at hSERT (setting [1]) was 0.01 to 100 nM each time.

On to `N#CC1CCN(c2cc(C(F)(F)F)cc(COCC3(c4ccc(F)cc4)CCNCC3)n2)C1` (centres unmarked) [Example 18], for which the half-maximal inhibitory concentration (IC50) on NK-1 and on hSERT (setting [1]) was 0.01 to 100 nM throughout.

Turning to `CN1CCC(COCc2cc(C(F)(F)F)cc(N3CCCC3)n2)(c2ccccc2F)CC1` [Example 55], the IC50 at NK-1 and on hSERT (setting [1]) was 0.01 to 100 nM throughout.

On to `CN1CCC(COCc2cc(C(F)(F)F)cc(N3CC[C@H](F)C3)n2)(c2ccc(F)cc2)CC1` [Example 91], for which the IC50 on NK-1 and at hSERT was 0.01 to 100 nM in each case.

In the case of `COc1ccc(-c2cc(C(F)(F)F)cc(COCC3(c4ccccc4)CCNCC3)n2)cc1` [Example 1, 2-(4-methoxyphenyl)-6-(((4-phenylpiperidin-4-yl)methoxy)methyl)-4-(trifluoromethyl)pyridine], the IC50 on NK-1 and on hSERT (setting [1]) was 0.01 to 100 nM each time.

For `CN1CCC(COCc2cc(N3CCCC3)cc(C(F)(F)F)n2)(c2ccccc2)CC1` [Example 48], the IC50 on NK-1 and at hSERT was 0.01 to 100 nM each time.

`CN1CCC(COCc2cc(C(F)(F)F)cc(-c3ccc(C#N)cc3)n2)(c2cccc(Cl)c2)CC1` [Example 82]: the IC50 at NK-1 and on hSERT was 0.01 to 100 nM throughout.

On to `Cc1ccc(-c2cc(C(F)(F)F)cc(COCC3(c4ccccc4)CCN(C)CC3)n2)cc1` [Example 40], for which the IC50 at NK-1 and on hSERT was 0.01 to 100 nM in each case.

With `CN1CCC(COCc2cc(C(F)(F)F)cc(N3CCCC3)n2)(c2ccc(F)cc2)CC1` [Example 59], the 50% inhibitory concentration (IC50) at NK-1 and on hSERT (setting [1]) was 0.01 to 100 nM in each case.

As to `C[C@H]1CCCN1c1cc(C(F)(F)F)cc(COCC2(c3ccc(F)cc3)CCN(C)CC2)n1` [Example 93], the IC50 at NK-1 and on hSERT was 0.01 to 100 nM in each case.

Consider `CN1CCC(COCc2cc(C(F)(F)F)cc(Cl)n2)(c2cccnc2)CC1` [Example 35, 2-chloro-6-(((1-methyl-4-(pyridin-3-yl)piperidin-4-yl)methoxy)methyl)-4-(trifluoromethyl)pyridine], for which the IC50 at NK-1 is more than 300 nM; on hSERT, 0.01 to 100 nM.

For `FC(F)(F)c1ccc(-c2cc(C(F)(F)F)cc(COCC3(c4ccccc4)CCNCC3)n2)cc1` [Example 3], the values for the IC50 on NK-1 and on hSERT (setting [1]) were more than 300 nM and 100 to 300 nM, respectively.

As for `COc1cc(C(C)OCC2(c3ccc(F)cc3)CCN(C)CC2)cc(-c2ccc(C#N)cc2)n1` (centres unmarked) [Example 79], the IC50 at NK-1 and on hSERT was 0.01 to 100 nM in each case.

As for `CN1CCC(COCc2cc(C(F)(F)F)cc(-c3ccc(C#N)cc3)n2)(c2cccc(C(F)(F)F)c2)CC1` [Example 83], the IC50 on NK-1 was 0.01 to 100 nM; at hSERT, 100 to 300 nM.

For `COc1ccc(-c2cc(C(F)(F)F)cc(COCC3(c4ccc(F)cc4)CCN(C)CC3)n2)cc1` [Example 74], the IC50 at NK-1 and on hSERT was 0.01 to 100 nM throughout.

In the case of `CC(OCC1(c2ccccc2)CCNCC1)c1cc(C(F)(F)F)cc(-c2ccc(C#N)cc2)n1` (centres unmarked) [Example 8], the IC50 on NK-1 and on hSERT (setting [1]) was 0.01 to 100 nM each time.

For `Fc1ccc(C2(COCc3cc(C(F)(F)F)cc(N4CCCC4)n3)CCNCC2)cc1` [Example 20], the IC50 at NK-1 and at hSERT (setting [1]) was 0.01 to 100 nM throughout.

Consider `CN1CCC(COCc2cc(C(F)(F)F)cc(N3CCC(F)(F)C3)n2)(c2ccc(F)cc2)CC1` [Example 89], for which the 50% inhibitory concentration (IC50) on NK-1 and at hSERT was 0.01 to 100 nM in each case.

Take `CN1CCC(COCc2cncc(-c3ccco3)c2)(c2ccccc2)CC1` [Example 49]: the IC50 at NK-1 was more than 300 nM; on hSERT, 0.01 to 100 nM.

Take `N#Cc1ccc(-c2cc(C(F)(F)F)cc(COCC3(c4ccccc4)CCNCC3)n2)cc1` [Example 6]: the IC50 at NK-1 and at hSERT (setting [1]) was 0.01 to 100 nM in each case.

Take `Cc1cc(C(F)(F)F)cc(COCC2(c3ccc(F)cc3)CCN(C)CC2)n1` [Example 36, 2-(((4-(4-fluorophenyl)-1-methylpiperidin-4-yl)methoxy)methyl)-6-methyl-4-(trifluoromethyl)pyridine]: the IC50 at NK-1 and at hSERT was 0.01 to 100 nM in each case.

Take `CN1CCC(COCc2cc(C(F)(F)F)cc(-c3ccc(C#N)cc3)n2)(c2ccc(F)c(F)c2)CC1` [Example 81]: the 50% inhibitory concentration (IC50) at NK-1 and on hSERT was 0.01 to 100 nM in each case.

Consider `CCN(c1cc(C(F)(F)F)cc(COCC2(c3ccc(F)cc3)CCN(C)CC2)n1)C(C)C` [Example 73], for which the concentration for half-maximal inhibition (IC50) at NK-1 and at hSERT was 0.01 to 100 nM throughout.
